SMILES strings stand for the structures.

Broadly, the melting point is the temperature, or range, at which the solid turns liquid. `COc1ccc(/C=C/C(=O)/C=C(O)\C=C\c2ccc(OC)c(OCc3ccccc3)c2)cc1OCc1ccccc1` [compound 3 of FIG. 35, (1E,4E,6E)-5-Hydroxy-1,7-bis(3-benzyloxy-4-methoxyphenyl)hepta-1,4,6-trien-3-one]: the melting point lay in the range of 153 to 155 °C. Take `COc1cc(/C=C/C(=O)/C(F)=C(O)/C=C/c2ccc(O)c(OC)c2)ccc1O` [compound 4 of FIG. 2, (1E,4E,6E)-4-Fluoro-5-hydroxy-1,7-bis(4-hydroxy-3-methoxyphenyl)hepta-1,4,6-trien-3-one]: the melting point lay in the range of 154 to 155 °C. For `O=C(/C=C/c1ccc(OCc2ccccc2)c(OCc2ccccc2)c1)/C=C(O)\C=C\c1ccc(OCc2ccccc2)c(OCc2ccccc2)c1` [compound 5 of FIG. 35, (1E,4E,6E)-5-Hydroxy-1,7-bis(3,4-dibenzyloxyphenyl)hepta-1,4,6-trien-3-one], the melting point lay in the range of 150 to 153 °C.

Regarding `O=C(/C=C/c1csc2ccccc12)/C=C(O)\C=C\c1csc2ccccc12` [compound 7 of Example 5, (1E,4E,6E)-5-Hydroxy-1,7-bis(benzo[b]thiophen-3-yl)hepta-1,4,6-trien-3-one], the melting point lay in the range of 159 to 160 °C. On to `COc1ccc(/C=C/C(=O)C(F)(F)C(=O)/C=C/c2ccc(OC)c(OC)c2)cc1OC` [compound 7 of FIG. 2, (1E,6E)-4,4-Difluoro-1,7-bis(3,4-dimethoxyphenyl)hepta-1,6-diene-3,5-dione], for which the melting point lay in the range of 148 to 149 °C.

`COc1ccc(/C=C/C(=O)/C=C(O)\C=C\c2ccc(OC)c(OC)c2OC)c(OC)c1OC` [compound 7 of FIG. 35, (1E,4E,6E)-5-Hydroxy-1,7-bis(2,3,4-trimethoxyphenyl)hepta-1,4,6-trien-3-one] yielded a melting point of 104 to 106 °C. Consider `COc1ccc(/C=C/C(=O)/C(F)=C(O)/C=C/c2ccc(OC)c(OC)c2)cc1OC` [compound 8 of FIG. 2, (1E,4E,6E)-4-Fluoro-5-hydroxy-1,7-bis(3,4-dimethoxyphenyl)hepta-1,4,6-trien-3-one], for which the melting point is 145 to 146 °C. Take `O=C(/C=C/c1cc2ccccc2o1)/C=C(O)\C=C\c1cc2ccccc2o1` [compound 9 of Example 5, (1E,4E,6E)-5-Hydroxy-1,7-bis(benzo[b]furan-2-yl)hepta-1,4,6-trien-3-one]: the melting point fell in the range of 178 to 180 °C.

Regarding `O=C(/C=C/c1ccc(F)cc1)C(F)(F)C(=O)/C=C/c1ccc(F)cc1` [compound 12 of FIG. 2, (1E,6E)-4,4-Difluoro-1,7-bis(4-fluorophenyl)hepta-1,6-diene-3,5-dione], the melting point lay in the range of 72 to 73 °C.

As to `O=C(/C=C/c1ccc(F)cc1)/C(F)=C(O)/C=C/c1ccc(F)cc1` [compound 13 of FIG. 2, (1E,4E,6E)-4-Fluoro-1,7-bis(4-fluorophenyl)-5-hydroxy-hepta-1,4,6-trien-3-one], the melting point fell in the range of 152 to 153 °C. Compound `COc1cc(F)c(/C=C/C(=O)/C=C(O)\C=C\c2cc(OC)c(OC)cc2F)cc1OC` [compound 15 of FIG. 2, (1E,4E,6E)-5-Hydroxy-1,7-bis(3,4-dimethoxy-6-fluorophenyl)hepta-1,4,6-trien-3-one] showed a melting point of 154 to 156 °C. As to `O=C(/C=C/c1cccc(OC(F)(F)F)c1)/C=C(O)\C=C\c1cccc(OC(F)(F)F)c1` [compound 15 of FIG. 35, (1E,4E,6E)-5-Hydroxy-1,7-bis(3-trifluoromethoxyphenyl)hepta-1,4,6-trien-3-one], the melting point was in the range of 68 to 70 °C. As for `COc1cc(F)c(/C=C/C(=O)C(F)(F)C(=O)/C=C/c2cc(OC)c(OC)cc2F)cc1OC` [compound 16 of FIG. 2, (1E,6E)-4,4-Difluoro-1,7-bis(3,4-dimethoxy-6-fluorophenyl)hepta-1,6-diene-3,5-dione], the melting point was in the range of 162 to 163 °C.

Consider `COc1cc(F)c(/C=C/C(=O)/C(F)=C(O)/C=C/c2cc(OC)c(OC)cc2F)cc1OC` [compound 17 of FIG. 2, (1E,4E,6E)-4-Fluoro-5-hydroxy-1,7-bis(3,4-dimethoxy-6-fluorophenyl)hepta-1,4,6-trien-3-one], for which the melting point was in the range of 148 to 150 °C.

In turn, `O=C(/C=C/c1ccc(OC(F)(F)F)cc1)/C=C(O)\C=C\c1ccc(OC(F)(F)F)cc1` [compound 17 of FIG. 35, (1E,4E,6E)-5-Hydroxy-1,7-bis(4-trifluoromethoxyphenyl)hepta-1,4,6-trien-3-one] registered a melting point of 108 to 111 °C. Turning to `COc1cc(F)c(/C=C/C(=O)C(F)C(=O)/C=C/c2cc(OC)c(OC)cc2F)cc1OC` [compound 18 of FIG. 2, (1E,6E)-4-Fluoro-1,7-bis(3,4-dimethoxy-6-fluorophenyl)hepta-1,6-diene-3,5-dione], the melting point was more than 260 °C.

In turn, `O=C(/C=C/c1ccc(C(F)(F)F)cc1)/C=C(O)\C=C\c1ccc(C(F)(F)F)cc1` [compound 20 of FIG. 2, (1E,4E,6E)-1,7-Bis(4-trifluoromethyl-phenyl)-5-hydroxy-hepta-1,4,6-trien-3-one] registered a melting point of 153 to 154 °C. With `O=C(/C=C/c1ccc(C(F)(F)F)cc1)C(F)(F)C(=O)/C=C/c1ccc(C(F)(F)F)cc1` [compound 21 of FIG. 2, (1E,6E)-4,4-Difluoro-1,7-bis(4-trifluoromethyl-phenyl)hepta-1,6-diene-3,5-dione], the melting point lay within 75 to 76 °C. For `O=C(/C=C/c1ccc(F)c(F)c1F)/C=C(O)\C=C\c1ccc(F)c(F)c1F` [compound 21 of FIG. 35, (1E,4E,6E)-5-Hydroxy-1,7-bis(2,3,4-trifluorophenyl)hepta-1,4,6-trien-3-one], the melting point fell in the range of 156 to 158 °C. Take `O=C(/C=C/c1ccc(C(F)(F)F)cc1)/C(F)=C(O)/C=C/c1ccc(C(F)(F)F)cc1` [compound 22 of FIG. 2, (1E,4E,6E)-4-Fluoro-1,7-bis(4-trifluoromethyl-phenyl)-5-hydroxy-hepta-1,4,6-trien-3-one]: the melting point was 144 to 146 °C. In turn, `COc1cc(F)c(C=Cc2cc(C=Cc3cc(OC)c(OC)cc3F)n(-c3ccccc3)n2)cc1OC` [compound 22 of FIG. 43, 3,5-bis-(6-Fluoro-3,4-dimethoxystyryl)-1-phenylpyrazole] yielded a melting point of 142 to 144 °C. `COc1cc(F)c(C=Cc2cc(C=Cc3cc(OC)c(OC)cc3F)n(-c3ccc(OC(F)(F)F)cc3)n2)cc1OC` [compound 23 of FIG. 43, 3,5-bis-(6-Fluoro-3,4-dimethoxystyryl)-1-(4-trifluoromethoxyphenyl)pyrazole]: the melting point is 80 to 83 °C. Regarding `COc1cc(F)c(C=Cc2cc(C=Cc3cc(OC)c(OC)cc3F)n(-c3cccc(C(F)(F)F)c3)n2)cc1OC` [compound 24 of FIG. 43, 3,5-bis-(6-Fluoro-3,4-dimethoxystyryl)-1-(3-trifluoromethylphenyl)pyrazole], the melting point lay in the range of 130 to 134 °C. `COc1cc(F)c(C=Cc2cc(C=Cc3cc(OC)c(OC)cc3F)n(-c3cc(F)cc(F)c3)n2)cc1OC` [compound 25 of FIG. 43, 3,5-bis-(6-Fluoro-3,4-dimethoxystyryl)-1-(3,5-difluorophenyl) pyrazole]: the melting point was in the range of 115 to 117 °C. On to `COc1cc(F)c(C=Cc2cc(C=Cc3cc(OC)c(OC)cc3F)n(-c3ccc(C#N)cc3)n2)cc1OC` [compound 26 of FIG. 43, 3,5-bis-(6-Fluoro-3,4-dimethoxystyryl)-1-(4-cyanophenyl)pyrazole], for which the melting point was in the range of 91 to 93 °C. `FC(F)(F)Sc1ccc(C=Cc2cc(C=Cc3ccc(SC(F)(F)F)cc3)n(-c3ccccc3)n2)cc1` [compound 28 of FIG. 43, 3,5-bis-(4-Trifluoromethylthiostyryl)-1-phenylpyrazole] displayed a melting point of 119 to 121 °C. In turn, `FC(F)(F)Sc1ccc(C=Cc2cc(C=Cc3ccc(SC(F)(F)F)cc3)n(-c3cccc(C(F)(F)F)c3)n2)cc1` [compound 29 of FIG. 43, 3,5-bis-(4-trifluoromethylthiostyryl)-1-(3-trifluoromethylphenyl)pyrazole] returned a melting point of 121 to 122 °C.

As to `FC(F)(F)Sc1ccc(C=Cc2cc(C=Cc3ccc(SC(F)(F)F)cc3)on2)cc1` [compound 30 of FIG. 43, 3,5-bis-(4-Trifluoromethylthiostyryl)-isoxazole], the melting point was 165 to 167 °C. For the compound `Fc1ccc(C=Cc2cc(C=Cc3ccc(F)cc3)n(-c3ccccc3)n2)cc1` [compound 31 of FIG. 43, 3,5-bis-(4-Fluorostyryl)-1-phenylpyrazole], the melting point was 109 to 111 °C. `Fc1ccc(C=Cc2cc(C=Cc3ccc(F)cc3)n(-c3ccc(OC(F)(F)F)cc3)n2)cc1` [compound 32 of FIG. 43, 3,5-bis-(4-Fluorostyryl)-1-(4-trifluoromethoxyphenyl)pyrazole] returned a melting point of 155 to 156 °C. For `Fc1ccc(C=Cc2cc(C=Cc3ccc(F)cc3)n(-c3cccc(C(F)(F)F)c3)n2)cc1` [compound 33 of FIG. 43, 3,5-bis-(4-Fluorostyryl)-1-(3-trifluoromethylphenyl)pyrazole], the melting point lay within 98 to 100 °C. Compound `Fc1ccc(C=Cc2cc(C=Cc3ccc(F)cc3)n(-c3ccc(F)c(F)c3)n2)cc1` [compound 34 of FIG. 43, 3,5-bis-(4-Fluorostyryl)-1-(3,4-difluorophenyl)pyrazole] showed a melting point of 169 to 170 °C. As for `N#Cc1ccc(-n2nc(C=Cc3ccc(F)cc3)cc2C=Cc2ccc(F)cc2)cc1` [compound 35 of FIG. 43, 3,5-bis-(4-Fluorostyryl)-1-(4-cyanophenyl)pyrazole], the figure is 209 to 211 °C; as for `FC(F)(F)c1ccc(C=Cc2cc(C=Cc3ccc(C(F)(F)F)cc3)n(-c3ccccc3)n2)cc1` [compound 37 of FIG. 43, 3,5-bis-(4-Trifluoromethylstyryl)-1-phenylpyrazole], 137 to 139 °C.

In turn, `COc1ccc(C=Cc2cc(C=Cc3ccc(OC)c(OC)c3OC)on2)c(OC)c1OC` [compound 40 of FIG. 43, 3,5-bis-(2,3,4-Trimethoxystyryl)-isoxazole] returned a melting point of 136 to 137 °C. For the compound `COc1cc(C=Cc2cc(C=Cc3cc(OC)c(OC)c(OC)c3)n(-c3ccccc3)n2)cc(OC)c1OC` [compound 41 of FIG. 43, 3,5-bis-(3,4,5-Trimethoxy-styryl)-1-phenylpyrazole], the melting point was 144 to 146 °C.
